The NIST ThermoML archive (doi:10.1021/je034087q)

Experiment: xn = mol fraction of the nth substance listed

CCCCC [pentane] + O=C=O
Conditions	mass density [kg/m3]
312.35 K, 7770 kPa, Fluid (supercritical or subcritical phases), x2 = 0.96	475
312.35 K, 7780 kPa, Fluid (supercritical or subcritical phases), x2 = 0.96	479
312.35 K, 7790 kPa, Fluid (supercritical or subcritical phases), x2 = 0.96	482
312.35 K, 7800 kPa, Fluid (supercritical or subcritical phases), x2 = 0.96	488
312.35 K, 7810 kPa, Fluid (supercritical or subcritical phases), x2 = 0.96	491
312.35 K, 7840 kPa, Fluid (supercritical or subcritical phases), x2 = 0.96	501
312.35 K, 7870 kPa, Fluid (supercritical or subcritical phases), x2 = 0.96	511
312.35 K, 7890 kPa, Fluid (supercritical or subcritical phases), x2 = 0.96	522
312.35 K, 7920 kPa, Fluid (supercritical or subcritical phases), x2 = 0.96	532
312.35 K, 7970 kPa, Fluid (supercritical or subcritical phases), x2 = 0.96	544
312.35 K, 8010 kPa, Fluid (supercritical or subcritical phases), x2 = 0.96	556
312.35 K, 8070 kPa, Fluid (supercritical or subcritical phases), x2 = 0.96	568
312.35 K, 8150 kPa, Fluid (supercritical or subcritical phases), x2 = 0.96	581
312.35 K, 8230 kPa, Fluid (supercritical or subcritical phases), x2 = 0.96	594
312.35 K, 8360 kPa, Fluid (supercritical or subcritical phases), x2 = 0.96	608
312.35 K, 8530 kPa, Fluid (supercritical or subcritical phases), x2 = 0.96	624
312.35 K, 8740 kPa, Fluid (supercritical or subcritical phases), x2 = 0.96	639
312.35 K, 9020 kPa, Fluid (supercritical or subcritical phases), x2 = 0.96	656
312.35 K, 9400 kPa, Fluid (supercritical or subcritical phases), x2 = 0.96	674
312.35 K, 9600 kPa, Fluid (supercritical or subcritical phases), x2 = 0.96	686
315.55 K, 7940 kPa, Fluid (supercritical or subcritical phases), x2 = 0.947	466
315.55 K, 7960 kPa, Fluid (supercritical or subcritical phases), x2 = 0.947	472
315.55 K, 7970 kPa, Fluid (supercritical or subcritical phases), x2 = 0.947	475
315.55 K, 8010 kPa, Fluid (supercritical or subcritical phases), x2 = 0.947	484
315.55 K, 8040 kPa, Fluid (supercritical or subcritical phases), x2 = 0.947	492
315.55 K, 8070 kPa, Fluid (supercritical or subcritical phases), x2 = 0.947	502
315.55 K, 8110 kPa, Fluid (supercritical or subcritical phases), x2 = 0.947	512
315.55 K, 8150 kPa, Fluid (supercritical or subcritical phases), x2 = 0.947	522
315.55 K, 8200 kPa, Fluid (supercritical or subcritical phases), x2 = 0.947	532
315.55 K, 8250 kPa, Fluid (supercritical or subcritical phases), x2 = 0.947	543
315.55 K, 8320 kPa, Fluid (supercritical or subcritical phases), x2 = 0.947	555
315.55 K, 8390 kPa, Fluid (supercritical or subcritical phases), x2 = 0.947	566
315.55 K, 8490 kPa, Fluid (supercritical or subcritical phases), x2 = 0.947	578
315.55 K, 8610 kPa, Fluid (supercritical or subcritical phases), x2 = 0.947	592
315.55 K, 8760 kPa, Fluid (supercritical or subcritical phases), x2 = 0.947	605
315.55 K, 8970 kPa, Fluid (supercritical or subcritical phases), x2 = 0.947	620
315.55 K, 9200 kPa, Fluid (supercritical or subcritical phases), x2 = 0.947	635
315.55 K, 9520 kPa, Fluid (supercritical or subcritical phases), x2 = 0.947	650
315.55 K, 9940 kPa, Fluid (supercritical or subcritical phases), x2 = 0.947	666
315.55 K, 10200 kPa, Fluid (supercritical or subcritical phases), x2 = 0.947	676
315.55 K, 10490 kPa, Fluid (supercritical or subcritical phases), x2 = 0.947	684
315.55 K, 10840 kPa, Fluid (supercritical or subcritical phases), x2 = 0.947	695
315.55 K, 11480 kPa, Fluid (supercritical or subcritical phases), x2 = 0.947	711
318.15 K, 7980 kPa, Fluid (supercritical or subcritical phases), x2 = 0.901	590
318.15 K, 8070 kPa, Fluid (supercritical or subcritical phases), x2 = 0.901	594
318.15 K, 8170 kPa, Fluid (supercritical or subcritical phases), x2 = 0.901	600
318.15 K, 8280 kPa, Fluid (supercritical or subcritical phases), x2 = 0.901	606
318.15 K, 8380 kPa, Fluid (supercritical or subcritical phases), x2 = 0.901	613
318.15 K, 8520 kPa, Fluid (supercritical or subcritical phases), x2 = 0.901	619
318.15 K, 8660 kPa, Fluid (supercritical or subcritical phases), x2 = 0.901	625
318.15 K, 8810 kPa, Fluid (supercritical or subcritical phases), x2 = 0.901	631
318.15 K, 8980 kPa, Fluid (supercritical or subcritical phases), x2 = 0.901	638
318.15 K, 9180 kPa, Fluid (supercritical or subcritical phases), x2 = 0.901	644
318.15 K, 9400 kPa, Fluid (supercritical or subcritical phases), x2 = 0.901	651
318.15 K, 9440 kPa, Fluid (supercritical or subcritical phases), x2 = 0.901	654
318.15 K, 9550 kPa, Fluid (supercritical or subcritical phases), x2 = 0.901	656
318.15 K, 9720 kPa, Fluid (supercritical or subcritical phases), x2 = 0.901	661
318.15 K, 9910 kPa, Fluid (supercritical or subcritical phases), x2 = 0.901	666
318.15 K, 10010 kPa, Fluid (supercritical or subcritical phases), x2 = 0.901	669
318.15 K, 10130 kPa, Fluid (supercritical or subcritical phases), x2 = 0.901	670
318.15 K, 10260 kPa, Fluid (supercritical or subcritical phases), x2 = 0.901	674
318.15 K, 10370 kPa, Fluid (supercritical or subcritical phases), x2 = 0.901	677
318.15 K, 10560 kPa, Fluid (supercritical or subcritical phases), x2 = 0.901	680
318.15 K, 10680 kPa, Fluid (supercritical or subcritical phases), x2 = 0.901	683
318.15 K, 10880 kPa, Fluid (supercritical or subcritical phases), x2 = 0.901	685
318.15 K, 11070 kPa, Fluid (supercritical or subcritical phases), x2 = 0.901	689
318.15 K, 11290 kPa, Fluid (supercritical or subcritical phases), x2 = 0.901	694
318.15 K, 11490 kPa, Fluid (supercritical or subcritical phases), x2 = 0.901	697
318.15 K, 11650 kPa, Fluid (supercritical or subcritical phases), x2 = 0.901	698
318.15 K, 11890 kPa, Fluid (supercritical or subcritical phases), x2 = 0.901	702
318.15 K, 12110 kPa, Fluid (supercritical or subcritical phases), x2 = 0.901	705
318.15 K, 12380 kPa, Fluid (supercritical or subcritical phases), x2 = 0.901	710
318.15 K, 12600 kPa, Fluid (supercritical or subcritical phases), x2 = 0.901	713
318.15 K, 12940 kPa, Fluid (supercritical or subcritical phases), x2 = 0.901	716
318.15 K, 13280 kPa, Fluid (supercritical or subcritical phases), x2 = 0.901	722
318.15 K, 13690 kPa, Fluid (supercritical or subcritical phases), x2 = 0.901	727
318.15 K, 13870 kPa, Fluid (supercritical or subcritical phases), x2 = 0.901	728
318.15 K, 14050 kPa, Fluid (supercritical or subcritical phases), x2 = 0.901	732
318.15 K, 14410 kPa, Fluid (supercritical or subcritical phases), x2 = 0.901	734
318.15 K, 14620 kPa, Fluid (supercritical or subcritical phases), x2 = 0.901	736
318.15 K, 14900 kPa, Fluid (supercritical or subcritical phases), x2 = 0.901	738
318.15 K, Liquid, Other PVT measurement, x2 = 0.901	585
323.15 K, 2500 kPa, Fluid (supercritical or subcritical phases), x2 = 0.214	607
